Key:
Format in all cases: cell-based
[1] = target: AXL (Homo sapiens (Human), UniProt P30530); assay: AXL autophosphorylation ELISA in A-172 cells; settings: cellular, Gas6-stimulated, phospho-AXL ELISA
Protocol: A-172 glioblastoma cells (ATCC #CRL-1620) were seeded at 2.5×10^5 cells/well onto 24-well plates (Greiner #662165), in DMEM (Thermo Fisher #11995-040) containing 10% FBS (Thermo Fisher #26140-079), 1% MEM NEAA (Thermo Fisher #11140-050), 1% GlutaMax (Thermo Fisher #35050-061), and 1% Penicillin Streptomycin (Thermo Fisher #15140-122). A-172 cells were incubated at 37° C., 5% CO2 for 24 h and then starved for 24 h in serum-free medium. Test compounds were serially diluted to produce an 8-point dose curve in fresh serum-free medium to a final concentration of 0.3% DMSO (vehicle) and added to the cells and incubated for 1 h. Cells were then stimulated with 1 μg/mL recombinant human Gas6 (R&D Systems #885-GSB-500) for 15 min, washed with cold PBS, and immediately lysed with 150 μL of cold IX lysis buffer [20 mM Tris, 137 mM sodium chloride, 2 mM EDTA, 10% glycerol, 1% NP-40 alternative, 1 mM activated sodium orthovanadate, 1 mM PefaBloc SC (Sigma-Aldrich #11429868001), protease/phosphatase inhibitor tablet (Thermo Fisher #A32959)]. Lysates were collected and 100 μL/well added into the human phospho-AXL Duo Set IC ELISA (R&D Systems #DYC2228-2). Assay was performed according to manufacturer's instructions and sample phospho-AXL concentrations were extrapolated using human phospho-AXL control (R&D Systems #841645) as a standard. Positive control wells (100% activity) contained Gas6-stimulated, DMSO-treated cell lysates. Negative control wells (0% activity) contained Gas6-stimulated, reference inhibitor-treated cell lysates. IC50 values were calculated by nonlinear regression analysis using a 4-parameter logistic curve fit in ActivityBase XL (IDBS).

[2] = target: Mer (Homo sapiens (Human), UniProt Q12866); assay: Mer autophosphorylation ELISA in transient transfected 293A cells; settings: cellular, MERTK-transfected 293A cells, phospho-Mer ELISA
Sequence of Mer (Q12866 21-999): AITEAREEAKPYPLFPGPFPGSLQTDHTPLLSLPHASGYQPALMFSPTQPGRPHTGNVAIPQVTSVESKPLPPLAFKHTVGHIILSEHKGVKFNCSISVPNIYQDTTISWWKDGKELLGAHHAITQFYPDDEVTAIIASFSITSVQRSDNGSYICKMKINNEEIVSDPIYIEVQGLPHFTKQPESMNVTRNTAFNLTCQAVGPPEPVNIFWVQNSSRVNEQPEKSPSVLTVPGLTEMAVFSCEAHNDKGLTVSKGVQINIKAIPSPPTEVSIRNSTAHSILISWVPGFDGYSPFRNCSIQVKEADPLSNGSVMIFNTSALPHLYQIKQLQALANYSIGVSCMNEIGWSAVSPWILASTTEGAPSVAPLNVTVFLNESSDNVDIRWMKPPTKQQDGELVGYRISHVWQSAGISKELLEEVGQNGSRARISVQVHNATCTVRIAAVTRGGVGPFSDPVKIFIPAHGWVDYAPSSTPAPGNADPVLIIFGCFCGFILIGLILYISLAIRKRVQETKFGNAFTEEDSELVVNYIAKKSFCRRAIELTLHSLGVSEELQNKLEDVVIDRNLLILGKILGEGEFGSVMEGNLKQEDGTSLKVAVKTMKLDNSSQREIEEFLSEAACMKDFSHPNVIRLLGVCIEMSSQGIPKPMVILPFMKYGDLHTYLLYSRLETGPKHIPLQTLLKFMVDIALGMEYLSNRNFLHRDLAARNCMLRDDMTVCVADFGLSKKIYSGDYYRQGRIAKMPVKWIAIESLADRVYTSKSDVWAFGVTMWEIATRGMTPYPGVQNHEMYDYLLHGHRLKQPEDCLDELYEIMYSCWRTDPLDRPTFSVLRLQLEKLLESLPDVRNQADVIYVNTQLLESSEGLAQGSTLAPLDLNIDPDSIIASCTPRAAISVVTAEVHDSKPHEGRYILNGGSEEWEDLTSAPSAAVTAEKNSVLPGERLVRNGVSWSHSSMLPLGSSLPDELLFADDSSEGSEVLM
Protocol: 293A cells (Thermo Fisher #R70507) were seeded at 1.5×10^6 cells/well onto 100 mm dish (Greiner #664169), in DMEM (Thermo Fisher #11995-040) containing 10% FBS (Thermo Fisher #26140-079), 1% MEM NEAA (Thermo Fisher #11140-050), 1% GlutaMax (Thermo Fisher #35050-061), and 1% Penicillin Streptomycin (Thermo Fisher #15140-122). 293A cells were incubated at 37° C., 5% CO2 for 24 h and then transfected with 6 μg MERTK DNA (Genecopoeia #EX-Z8208-M02) using TransIT LT1 transfection reagent (Mirus-Bio #MIR2305). After 24 h incubation, the transfected 293A cells were seeded at 1×10^5 cells/well onto 96-well plates (Corning #3904) in DMEM growth medium overnight. Test compounds were serially diluted to produce an 8-point dose curve in fresh serum-free medium to a final concentration of 0.3% DMSO (vehicle) and added to the cells and incubated for 1 h. Cells were then immediately lysed with 150 μL of cold IX lysis buffer [20 mM Tris, 137 mM sodium chloride, 2 mM EDTA, 10% glycerol, 1% NP-40 alternative, 1 mM activated sodium orthovanadate, 1 mM PefaBloc SC (Sigma-Aldrich #11429868001), protease/phosphatase inhibitor tablet (Thermo Fisher #A32959)]. Lysates were clarified by centrifugation and 50 μL/well added into the human phospho-Mer DuoSet IC ELISA (R&D Systems #DYC2579-2). Assay was performed according to manufacturer's instructions and sample phospho-Mer concentrations were extrapolated using human phospho-Mer control (R&D Systems #841793) as a standard. Positive control wells (100% activity) contained DMSO-treated cell lysates. Negative control wells (0% activity) contained reference inhibitor-treated cell lysates. IC50 values were calculated by nonlinear regression analysis using a 4-parameter logistic curve fit in ActivityBase XE (IDBS).

[3] = target: Met (Homo sapiens (Human), UniProt P08581); assay: Met autophosphorylation ELISA in PC-3 cells; settings: cellular, HGF-stimulated, phospho-Met ELISA, read-out: c-Met IC50
Sequence of Met (P08581 25-1390): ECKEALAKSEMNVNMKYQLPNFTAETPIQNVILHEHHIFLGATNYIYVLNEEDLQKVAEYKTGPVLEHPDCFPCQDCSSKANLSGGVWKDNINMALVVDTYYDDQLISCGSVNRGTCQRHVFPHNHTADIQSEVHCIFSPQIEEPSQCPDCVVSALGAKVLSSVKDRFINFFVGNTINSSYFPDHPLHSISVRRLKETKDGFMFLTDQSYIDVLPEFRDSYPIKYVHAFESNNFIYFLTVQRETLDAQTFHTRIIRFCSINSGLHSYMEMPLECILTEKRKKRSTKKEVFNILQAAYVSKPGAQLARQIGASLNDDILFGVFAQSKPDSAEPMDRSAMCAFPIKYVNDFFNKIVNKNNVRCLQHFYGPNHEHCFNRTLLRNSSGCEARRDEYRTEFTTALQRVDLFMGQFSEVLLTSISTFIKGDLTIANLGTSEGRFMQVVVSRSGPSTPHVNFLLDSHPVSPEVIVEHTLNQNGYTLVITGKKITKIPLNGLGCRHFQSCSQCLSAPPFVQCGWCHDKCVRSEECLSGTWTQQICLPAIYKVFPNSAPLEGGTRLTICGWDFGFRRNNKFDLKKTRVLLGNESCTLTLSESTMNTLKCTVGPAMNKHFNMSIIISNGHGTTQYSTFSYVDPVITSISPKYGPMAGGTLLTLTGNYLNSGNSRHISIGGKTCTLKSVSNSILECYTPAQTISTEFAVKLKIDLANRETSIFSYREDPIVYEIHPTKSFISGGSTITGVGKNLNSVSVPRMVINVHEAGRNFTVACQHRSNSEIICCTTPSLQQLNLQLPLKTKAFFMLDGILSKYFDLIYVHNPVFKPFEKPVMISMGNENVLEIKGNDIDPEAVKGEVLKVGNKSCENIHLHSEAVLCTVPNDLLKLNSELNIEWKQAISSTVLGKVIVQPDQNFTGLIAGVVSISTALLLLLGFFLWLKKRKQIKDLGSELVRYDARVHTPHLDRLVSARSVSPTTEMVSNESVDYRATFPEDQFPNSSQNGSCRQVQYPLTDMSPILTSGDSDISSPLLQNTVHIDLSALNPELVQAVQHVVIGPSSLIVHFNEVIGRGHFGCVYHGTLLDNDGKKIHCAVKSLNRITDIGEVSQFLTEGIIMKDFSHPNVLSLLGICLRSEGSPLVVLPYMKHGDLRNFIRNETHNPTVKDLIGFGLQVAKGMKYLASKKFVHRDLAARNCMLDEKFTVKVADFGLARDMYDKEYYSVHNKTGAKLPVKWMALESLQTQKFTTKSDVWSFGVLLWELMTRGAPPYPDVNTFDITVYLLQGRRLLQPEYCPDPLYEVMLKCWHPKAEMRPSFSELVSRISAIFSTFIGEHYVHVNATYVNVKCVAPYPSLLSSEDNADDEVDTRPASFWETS
Protocol: PC-3 prostate cancer cells (ATCC #CRL-1435) were seeded at 4×10^4 cells/well onto 24-well plates (Greiner #662165), in DMEM (Thermo Fisher #11995-040) containing 10% FBS (Thermo Fisher #26140-079), 1% MEM NEAA (Thermo Fisher #11140-050), 1% GlutaMax (Thermo Fisher #35050-061), and 1% Penicillin Streptomycin (Thermo Fisher #15140-122). PC-3 cells were incubated at 37° C., 5% CO2 for 24 h and then starved for 3 h in serum-free medium. Test compounds were serially diluted to produce an 8-point dose curve in fresh serum-free medium to a final concentration of 0.3% DMSO (vehicle) and added to the cells and incubated for 1 h. Cells were then stimulated with 100 ng/mL recombinant human HGF (R&D Systems #294-HG-250) for 10 min, washed with cold PBS, and immediately lysed with 130 μL of cold IX lysis buffer [20 mM Tris, 137 mM sodium chloride, 2 mM EDTA, 10% glycerol, 1% NP-40 alternative, 1 mM activated sodium orthovanadate, 1 mM PefaBloc SC (Sigma-Aldrich #11429868001), protease/phosphatase inhibitor tablet (Thermo Fisher #A32959)]. Lysates were clarified by centrifugation and 100 μL/well added into the PathScan phospho-Met (panTyr) Sandwich ELISA (Cell Signaling Technology #7333). Assay was performed according to manufacturer's instructions. Positive control wells (100% activity) contained HGF-stimulated, DMSO-treated cell lysates. Negative control wells (0% activity) contained HGF-stimulated, reference inhibitor-treated cell lysates. IC50 values were calculated by nonlinear regression analysis using a 4-parameter logistic curve fit in ActivityBase XL (IDBS).

[4] = target: KDR (Homo sapiens (Human), UniProt P35968); assay: KDR autophosphorylation ELISA in HUVEC cells; settings: cellular, VEGF165-stimulated, phospho-KDR ELISA
Sequence of KDR (P35968 20-1356): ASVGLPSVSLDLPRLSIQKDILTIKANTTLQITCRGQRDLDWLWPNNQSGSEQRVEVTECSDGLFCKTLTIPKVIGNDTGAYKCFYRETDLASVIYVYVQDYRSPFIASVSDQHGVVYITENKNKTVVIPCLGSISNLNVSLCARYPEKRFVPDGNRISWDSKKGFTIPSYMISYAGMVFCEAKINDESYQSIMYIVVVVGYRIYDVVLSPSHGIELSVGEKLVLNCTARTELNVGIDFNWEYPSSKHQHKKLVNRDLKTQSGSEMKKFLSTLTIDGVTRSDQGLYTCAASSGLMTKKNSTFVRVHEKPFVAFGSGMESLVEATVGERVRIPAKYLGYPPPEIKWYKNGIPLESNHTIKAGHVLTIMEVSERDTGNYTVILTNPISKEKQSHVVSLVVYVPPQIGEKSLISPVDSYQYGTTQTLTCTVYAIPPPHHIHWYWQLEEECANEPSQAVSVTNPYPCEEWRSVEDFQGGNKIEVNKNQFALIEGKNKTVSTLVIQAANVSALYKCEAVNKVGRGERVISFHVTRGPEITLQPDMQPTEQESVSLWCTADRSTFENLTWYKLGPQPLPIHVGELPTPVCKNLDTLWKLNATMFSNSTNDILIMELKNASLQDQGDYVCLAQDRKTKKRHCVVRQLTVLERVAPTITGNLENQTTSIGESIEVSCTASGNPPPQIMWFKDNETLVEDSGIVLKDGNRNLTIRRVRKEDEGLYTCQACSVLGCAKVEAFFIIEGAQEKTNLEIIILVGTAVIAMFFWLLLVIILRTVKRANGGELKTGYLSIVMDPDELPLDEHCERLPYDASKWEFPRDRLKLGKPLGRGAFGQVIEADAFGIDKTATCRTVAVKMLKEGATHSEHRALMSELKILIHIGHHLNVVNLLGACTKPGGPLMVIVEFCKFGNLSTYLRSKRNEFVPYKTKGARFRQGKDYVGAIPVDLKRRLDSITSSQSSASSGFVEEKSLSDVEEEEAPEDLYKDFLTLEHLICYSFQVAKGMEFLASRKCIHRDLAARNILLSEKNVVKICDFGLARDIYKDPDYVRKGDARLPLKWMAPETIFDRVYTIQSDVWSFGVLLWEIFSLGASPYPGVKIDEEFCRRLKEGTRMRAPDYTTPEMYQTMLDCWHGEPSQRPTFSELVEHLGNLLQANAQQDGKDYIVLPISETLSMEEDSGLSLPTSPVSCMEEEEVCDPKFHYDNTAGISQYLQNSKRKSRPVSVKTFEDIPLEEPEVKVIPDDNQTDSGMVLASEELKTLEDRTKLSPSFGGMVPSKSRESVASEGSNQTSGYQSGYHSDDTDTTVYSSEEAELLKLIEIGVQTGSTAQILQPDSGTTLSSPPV
Protocol: Human umbilical vein endothelial cells or HUVEC (Lonza #C2519A) were seeded at 2×10^4 cells/well onto 96-well plates (Corning #3904), in EGM-2 growth medium (Lonza #CC-3162) containing 1% Penicillin Streptomycin (Thermo Fisher #15140-122). HUVEC cells were incubated at 37° C., 5% CO2 for 24 h and then starved for 24 h in serum-free EBM-2 basal medium (Lonza #CC-3156) containing 1% Penicillin Streptomycin. Test compounds were serially diluted to produce an 8-point dose curve in fresh serum-free medium to a final concentration of 0.3% DMSO (vehicle) and added to the cells and incubated for 1 h. Cells were then stimulated with 100 ng/mL recombinant human VEGF165 (R&D Systems #293-VE-500) for 5 min, washed with cold PBS, and immediately lysed with 130 μL of cold 1× lysis buffer [20 mM Tris, 137 mM sodium chloride, 2 mM EDTA, 10% glycerol, 1% NP-40 alternative, 1 mM activated sodium orthovanadate, 1 mM PefaBloc SC (Sigma-Aldrich #11429868001), protease/phosphatase inhibitor tablet (Thermo Fisher #A32959)]. Lysates were collected and 100 μL/well added into the human phospho-KDR Duo Set IC ELISA (R&D Systems #DYC 1766-2). Assay was performed according to manufacturer's instructions and sample phospho-KDR concentrations were extrapolated using human phospho-KDR control (R&D Systems #841421) as a standard. Positive control wells (100% activity) contained VEGF165-stimulated, DMSO-treated cell lysates. Negative control wells (0% activity) contained non-stimulated cell lysates. IC50 values were calculated by nonlinear regression analysis using a 4-parameter logistic curve fit in ActivityBase XE (IDBS).

Sequence of AXL (P30530 26-894): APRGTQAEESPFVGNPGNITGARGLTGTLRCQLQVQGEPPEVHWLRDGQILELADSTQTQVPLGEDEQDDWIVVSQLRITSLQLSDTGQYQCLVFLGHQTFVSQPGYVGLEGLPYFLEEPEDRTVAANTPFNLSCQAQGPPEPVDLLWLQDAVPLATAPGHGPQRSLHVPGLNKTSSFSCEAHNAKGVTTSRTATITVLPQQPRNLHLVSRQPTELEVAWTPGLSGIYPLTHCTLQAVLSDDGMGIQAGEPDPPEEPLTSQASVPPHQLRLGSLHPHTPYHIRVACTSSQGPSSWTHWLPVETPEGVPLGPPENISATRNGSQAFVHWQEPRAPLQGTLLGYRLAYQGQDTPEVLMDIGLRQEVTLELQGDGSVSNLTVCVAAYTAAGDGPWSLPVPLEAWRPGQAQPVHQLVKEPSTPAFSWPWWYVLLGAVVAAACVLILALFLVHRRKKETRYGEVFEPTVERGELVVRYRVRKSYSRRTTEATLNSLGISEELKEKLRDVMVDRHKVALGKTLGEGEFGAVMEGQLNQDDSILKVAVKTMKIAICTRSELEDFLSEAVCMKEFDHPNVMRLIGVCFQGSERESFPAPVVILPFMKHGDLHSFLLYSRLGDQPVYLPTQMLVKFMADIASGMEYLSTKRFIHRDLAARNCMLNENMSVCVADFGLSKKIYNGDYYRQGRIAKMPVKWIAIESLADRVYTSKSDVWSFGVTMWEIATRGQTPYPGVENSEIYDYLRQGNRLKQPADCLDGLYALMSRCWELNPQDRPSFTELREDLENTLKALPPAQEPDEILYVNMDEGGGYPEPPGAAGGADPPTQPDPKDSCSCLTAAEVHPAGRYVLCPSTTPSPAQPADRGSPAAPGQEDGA

IC50 [1] [µM]	IC50 [2] [µM]	IC50 [3] [µM]	IC50 [4] [µM]	Structure (SMILES)
0.01 to 0.1	0.01 to 0.1	0.01 to 0.1	0.1 to 0.3	COc1cnc2c(Oc3cc(F)c(NC(=O)C4(C(=O)Nc5ccc(F)cc5)CC4)cc3F)ncnc2c1 [Compound 19, 1-N′-[2,5-difluoro-4-(7-methoxypyrido[3,2-d]pyrimidin-4-yl)oxyphenyl]-1-N-(4-fluorophenyl)cyclo-propane-1,1-dicarboxamide]
≤ 0.01	0.01 to 0.1	0.01 to 0.1	0.01 to 0.1	COc1cc2ncnc(Oc3ccc(NC(=O)C4(C(=O)Nc5ccc(F)cc5)CC4)c(F)c3)c2nc1OC [Compound 31, 1-N′-[4-(6,7-dimethoxy-pyrido[3,2-d]pyrimidin-4-yl)oxy-2-fluorophenyl]-1-N-(4-fluorophenyl)cyclo-propane-1,1-dicarboxamide]
≤ 0.01	≤ 0.01	0.01 to 0.1	0.01 to 0.1	COc1cc2ncnc(Oc3ccc(NC(=O)C4(C(=O)Nc5ccc(F)cc5)CC4)c(F)c3F)c2nc1OC [Compound 34, 1-N′-[4-(6,7-dimethoxypyrido[3,2-d]pyrimidin-4-yl)oxy-2,3-difluorophenyl]-1-N-(4-fluorophenyl)cyclo-propane-1,1-dicarbox-amide]
≤ 0.01	≤ 0.01	≤ 0.01	0.01 to 0.1	COc1cc2ncnc(Oc3cc(F)c(NC(=O)C4(C(=O)Nc5ccc(F)cc5)CC4)cc3F)c2nc1OC [Compound 35, 1-N′-[4-(6,7-dimethoxypyrido[3,2-d]pyrimidin-4-yl)oxy-2,5-difluorophenyl]-1-N-(4-fluorophenyl)cyclo-propane-1,1-dicarboxamide]
0.01 to 0.1	0.01 to 0.1	0.1 to 0.3	0.01 to 0.1	COc1nc2c(Oc3ccc(NC(=O)C4(C(=O)Nc5ccc(F)cc5)CC4)cc3C)ncnc2cc1OCCCN1CCOCC1 [Compound 68, 1-N-(4-fluorophenyl)-1-N′-[4-[6-methoxy-7-(3-morpholin-4-ylpropoxy)pyrido[3,2-d]pyrimidin-4-yl]oxy-3-methylphenyl]cyclopropane-1,1-dicarboxamide]
≤ 0.01	≤ 0.01	0.01 to 0.1	0.01 to 0.1	COc1nc2c(Oc3ccc(NC(=O)C4(C(=O)Nc5ccc(F)cc5)CC4)c(F)c3)ncnc2cc1OCCCN1CCOCC1 [Compound 69, 1-N′-[2-fluoro-4-[6-methoxy-7-(3-morpholin-4-ylpropoxy)pyrido[3,2-d]pyrimidin-4-yl]oxyphenyl]-1-N-(4-fluorophenyl)cyclo-propane-1,1-dicarboxamide]
0.01 to 0.1	0.01 to 0.1	0.1 to 0.3	0.1 to 0.3	COc1nc2c(Oc3ccc(NC(=O)C4(C(=O)Nc5ccc(F)cc5)CC4)c(Cl)c3)ncnc2cc1OCCCN1CCOCC1 [Compound 70, 1-N′-[2-chloro-4-[6-methoxy-7-(3-morpholin-4-ylpropoxy)pyrido[3,2-d]pyrimidin-4-yl]oxyphenyl]-1-N-(4-fluorophenyl)cyclo-propane-1,1-dicarboxamide]
0.01 to 0.1	> 0.3	0.1 to 0.3	0.01 to 0.1	COc1nc2c(Oc3ccc(NC(=O)C4(C(=O)Nc5ccc(F)cc5)CC4)c(C)c3)ncnc2cc1OCCCN1CCOCC1 [Compound 71, 1-N-(4-fluorophenyl)-1-N′-[4-[6-methoxy-7-(3-morpholin-4-ylpropoxy)pyrido[3,2-d]pyrimidin-4-yl]oxy-2-methylphenyl]cyclopropane-1,1-dicarboxamide]
≤ 0.01	0.01 to 0.1	0.01 to 0.1	0.01 to 0.1	COc1nc2c(Oc3cc(F)c(NC(=O)C4(C(=O)Nc5ccc(F)cc5)CC4)cc3F)ncnc2cc1OCCCN1CCOCC1 [Compound 72, 1-N′-[2,5-difluoro-4-[6-methoxy-7-(3-morpholin-4-ylpropoxy)pyrido[3,2-d]pyrimidin-4-yl]oxyphenyl]-1-N-(4-fluorophenyl)cyclo-propane-1,1-dicarboxamide]
≤ 0.01	≤ 0.01	0.01 to 0.1	≤ 0.01	COc1nc2c(Oc3ccc(NC(=O)C4(C(=O)Nc5ccc(F)cc5)CC4)c(F)c3F)ncnc2cc1OCCCN1CCOCC1 [Compound 73, 1-N′-[2,3-difluoro-4-[6-methoxy-7-(3-morpholin-4-ylpropoxy)pyrido[3,2-d]pyrimidin-4-yl]oxyphenyl]-1-N-(4-fluoro-phenyl)cyclopropane-1,1-dicarboxamide]
0.01 to 0.1	0.01 to 0.1	0.01 to 0.1	0.01 to 0.1	COc1nc2c(Oc3ccc(NC(=O)C4(C(=O)Nc5ccc(F)cc5)CC4)cc3C#N)ncnc2cc1OCCCN1CCOCC1 [Compound 75, 1-N′-[3-cyano-4-[6-methoxy-7-(3-morpholin-4-ylpropoxy)pyrido[3,2-d]pyrimidin-4-yl]oxyphenyl]-1-N-(4-fluorophenyl)cyclo-propane-1,1-dicarboxamide]

Reference: patent US11708367B2, “Compounds for the treatment of kinase-dependent disorders” (Exelixis, Inc., priority 2018, dated 2023)
